Converted amounts (≈) assume the structure as drawn.
Key:
[1] = tested on: human microvascular cells; assay: inhibition of endothelial cell cord formation in vitro; type: cell-based; settings: for minimal effective concentration: Homo sapiens, Endothelial cell, Table II, read-out: Minimum Effective Concentration, Cord Formation; on effect on endothelial cord formation: key: +: Inhibition of angiogenesis; -: No inhibition of angiogenesis; Toxic; *: cell rounding @ 10 µg/ml
Description: Endothelial cells have the capacity in vitro to form tubular aggregates resembling capillaries in various early stages of formation. This conversion occurs under relatively specific conditions, in which essential growth factors along with an effective substratum are provided. It has been shown that both the interaction of growth factors with the endothelial cell and its attachment to a substratum activate the NHE. The activation of this exchanger is believed to be required for subsequent morphologic transformation of the endothelial cell into a multicellular tubular structure.
To assess the effect of compounds on the cord-like structures formed by human microvascular cells when plated in the presence of VEGF (Vascular Endothelial Growth Factor) and basic fibroblast growth factor on a collagen matrix, a standard cord formation assay was used.

[2] = tested on: stage 59-60 Xenopus tadpole; assay: Xenopus tadpole assay; settings: for similarity of pharmacologic activity in tadpole assay: in vivo; for tadpole response: 10 μg/ml, about 1 hour
[3] = tested on: S. aureus; assay: antibiotic activity (MIC); type: cell-based; settings: Staphylococcus aureus; S. aureus; read-out: MIC
Description: (§1) Thus, it is possible to achieve an antimicrobial steroid with or without squalamine-like pharmacological activity.

[4] = tested on: P. aerug; assay: antibiotic activity (MIC); type: cell-based; settings: P. aerug; read-out: MIC
Description: as §1

[5] = tested on: C. albicans; assay: antibiotic activity (MIC); type: cell-based; settings: Candida albicans; C. albicans; read-out: MIC
Description: as §1

[6] = tested on: E. coli; assay: antibiotic activity (MIC); type: cell-based; settings: Escherichia coli; E. coli; read-out: MIC
Description: as §1

[7] = tested on: chick embryo vitelline capillaries; assay: chick embryo vitelline capillary regression assay; type: in vivo; settings: for relative activity: Table 5
Procedure: Using the chick embryo vitelline capillaries assay, compounds were tested for their ability to induce capillary regression. Each compound was applied in 0.1 ml of 15% Ficol 400 and PBS onto the embryo, and vascular regression was assessed after 60 minutes.
The 3-day chick embryo consists of an embryonic disc from which numerous vessels emerge and return, forming a "FIG. 8"-shaped structure--the embryo in the center with vascular loops extending outward over both poles. […] Following a lag period of around 15 minutes, the constriction of continuity between capillary and secondary vessels, generally on the "venous" side, was observed. Continued pulsatile blood flow progressed, resulting in a "swelling" of the blind tube, followed by a pinching off of the remaining connection and formation of an enclosed vascular sac resembling a "blood island." This process progressed until only the largest vessels remained intact.

[8] = tested on: B16 melanoma; assay: suppression of growth of B16 melanoma in C57B mice; type: in vivo, mouse; settings: subcutaneous, C57B mice, FIG. 6
Procedure: The growth of B16 melanoma in C57B mice is dependent upon neovascularization.
Using the growth of B16 melanoma cells in C57B mice, a recognized model for the evaluation of inhibitors of angiogenesis on the growth of cancers, the effects of subcutaneous, intraperitoneal and oral administration of squalamine were evaluated.
Based on the idea that tumor growth involves both the clonal expansion of a malignant cell along with the development of a supporting vascular supply, a combination of compound 1436 with squalamine was tested to determine whether it would achieve a synergistic effect on solid tumor growth. This concept was evaluated in the B16 melanoma model.
Animals were implanted with B16 melanoma followed by treatment with compound 1436 or 1256 administered in a combined schedule or separately. […] Thus, a combination of these two compounds achieves a therapeutic benefit in tumors dependent on neovascularization that may prevent metastatic spread.

[9] = tested on: NHE; assay: comparison of compound 319 with squalamine through the assays
Description: Moreover, other aminosterols have shown anti-angiogenic activity. Compounds were subjected to a various assays, including the chick embryo capillary regression assay, the tadpole assay, the assay for inhibition of endothelial cord formation, and the assay for direct inhibition of NHE, as described above, to determine their utilities. As evident from the above data, correlation among the results from the chick, tadpole and in vitro inhibition of endothelial cell cord formation assays is excellent.
Through the application of these assays, compound 319 emerged as an attractive alternative to squalamine. […] Further properties of compound 319 are discussed below.

[10] = tested on: L1210 lymphoblastic leukemia cells; assay: mouse model of leukemia; type: in vivo
Description: C57B mice were inoculated with L1210 lymphoblastic leukemia cells at an inoculum that causes leukemia in 100% of animals.

[11] = effect on arterial resistance in the rat; type: in vivo; settings: 40 μg noradrenaline, 30 minutes after compound 1436
Procedure: A 200-g rat was catheterized in the right carotid artery, and the compound was introduced over a ten-second period to a total dosage of 5 mg/kg. Within 30 seconds, the mean arterial pressure had fallen from about 100 mm Hg to about 70 mm Hg, with a marked reduction in pulse pressure from about 40 mm to about 10 mm. […] If cardiac output was basically unaffected, reduction in blood pressure would have resulted principally from a reduction in system resistance.
At that time, 40 μg of noradrenaline was introduced.

Structure (SMILES)	effect on endothelial cord formation ([1]; 0.1 μg/ml)	effect on endothelial cord formation ([1]; 1.0 μg/ml)	effect on endothelial cord formation ([1]; 10.0 μg/ml)	similarity of pharmacologic activity in tadpole assay [2]	MIC [3]	MIC [4]	MIC [5]	MIC [6]	other results
C[C@H](CCC(=O)O)[C@H]1CC[C@H]2[C@@H]3[C@H](O)C[C@@H]4C[C@H](NCCCNCCCCNCCCN)CC[C@]4(C)[C@H]3CC[C@]12C [Compound 412]	-	-	+	pharmacologic activity similar to that seen for FX 3	8 µg/mL (≈ 13.9 µM)	8 µg/mL (≈ 13.9 µM)	8 µg/mL (≈ 13.9 µM)	64 µg/mL (≈ 111 µM)	minimal effective concentration [1]: > 10 µg/mL
C[C@H](CCC(=O)O)[C@H]1CC[C@H]2[C@@H]3[C@H](O)C[C@@H]4C[C@@H](NCCN)CC[C@]4(C)[C@H]3CC[C@]12C [Compound 415]	-	-	+/T		128 µg/mL (≈ 294 µM)	256 µg/mL (≈ 589 µM)	256 µg/mL (≈ 589 µM)	128 µg/mL (≈ 294 µM)	relative activity [7]: especially active; minimal effective concentration [1]: > 10 µg/mL
CC(COS(=O)(=O)O)C(=O)CC[C@@H](C)[C@H]1CC[C@H]2[C@@H]3[C@H](O)C[C@H]4C[C@@H](NCCCNCCCCN)CC[C@]4(C)[C@H]3CC[C@]12C (single isomer, unassigned) [Compound 1360]					8 µg/mL (≈ 12.5 µM)		32 µg/mL (≈ 49.8 µM)	128 µg/mL (≈ 199 µM)	effect on blood circulating through embryonic vessels ([7]; within 20 minutes): exhibited a brighter red color; tadpole response [2]: Swelling and lysis of certain erythrocytes occurred, resulting in accumulation of nuclei within certain small vessels of the tail; tadpole response ([2]; listed as compound 1360): extensive vasocclusion occurred within 60 minutes throughout the tail
C[C@H](CCC(=O)O)[C@H]1CC[C@H]2[C@@H]3CC[C@H]4C[C@@H](NCCCNCCCCN)CC[C@]4(C)[C@H]3CC[C@]12C [Compound 319]	+	+	+		64 µg/mL (≈ 127 µM)	32 µg/mL (≈ 63.5 µM)	8 µg/mL (≈ 15.9 µM)	32 to 64 µg/mL (≈ 63.5 to 127 µM)	relative activity [7]: especially active; effect on endothelial cord formation ([1]; 0.01 μg/ml): -; control of B16 melanoma [8]: achieved control of B16 in C57B mice to an extent almost comparable to squalamine; tadpole response [2]: common vascular occlusive effect; CNS effects (specificity) [9]: no CNS effects; potency as an NHE inhibitor vs squalamine [9]: superior to squalamine
N.N.[Cl][Pt][Cl] [Cisplatin, reference compound]									hematological profile [10]: profound anemia by day 28
COC(=O)CC[C@@H](C)[C@H]1CC[C@H]2[C@@H]3CC[C@H]4C[C@H](NCCCNCCCCNCCCN)CC[C@]4(C)[C@H]3CC[C@]12C [Compound 458]				pharmacologic activity similar to that seen for FX 3	4 µg/mL (≈ 6.96 µM)	64 µg/mL (≈ 111 µM)	2 µg/mL (≈ 3.48 µM)	32 µg/mL (≈ 55.7 µM)	
C[C@H](CCC(=O)O)[C@H]1CC[C@H]2[C@@H]3[C@H](O)C[C@@H]4C[C@H](NCCN)CC[C@]4(C)[C@H]3CC[C@]12C [Compound 414]				potencies comparable to that of Fraction 1	32 µg/mL (≈ 73.6 µM)	64 µg/mL (≈ 147 µM)	64 µg/mL (≈ 147 µM)	64 µg/mL (≈ 147 µM)	
COC(=O)CC[C@@H](C)[C@H]1CC[C@H]2[C@@H]3CC[C@H]4C[C@@H](NCCCNCCCCNCCCN)CC[C@]4(C)[C@H]3CC[C@]12C [Compound 459]				pharmacologic activity similar to that seen for FX 3	1 to 2 µg/mL (≈ 1.74 to 3.48 µM)	64 µg/mL (≈ 111 µM)	2 µg/mL (≈ 3.48 µM)	32 µg/mL (≈ 55.7 µM)	
COC(=O)CC[C@@H](C)[C@H]1CC[C@H]2[C@@H]3[C@H](O)C[C@@H]4C[C@H](NCCN)CC[C@]4(C)[C@H]3CC[C@]12C [Compound 410]	-	+	+	functionally similar to compound 1437	16 µg/mL (≈ 35.7 µM)	32 µg/mL (≈ 71.3 µM)	16 µg/mL (≈ 35.7 µM)	16 µg/mL (≈ 35.7 µM)	minimal effective concentration [1]: 10 µg/mL
COC(=O)CC[C@@H](C)[C@H]1CC[C@H]2[C@@H]3C[C@@H](O)[C@H]4C[C@@H](NCCCNCCCCNCCCN)CC[C@]4(C)[C@H]3CC[C@]12C [Compound 466]				pharmacologic activity similar to that seen for FX 3	2 µg/mL (≈ 3.38 µM)	32 µg/mL (≈ 54.2 µM)	2 µg/mL (≈ 3.38 µM)	32 µg/mL (≈ 54.2 µM)	
CC(C)CCC[C@@H](C)[C@H]1CC[C@H]2[C@@H]3[C@H](O)C[C@H]4C[C@@H](NCCCNCCCCN)CC[C@]4(C)[C@H]3CC[C@]12C [Compound 371]				effects like those produced by compound 1436	4 µg/mL (≈ 7.52 µM)	64 µg/mL (≈ 120 µM)	2 µg/mL (≈ 3.76 µM)	64 µg/mL (≈ 120 µM)	
COC(=O)CC[C@@H](C)[C@H]1CC[C@H]2[C@@H]3C[C@@H](O)[C@H]4C[C@@H](NCCN)CC[C@]4(C)[C@H]3CC[C@]12C [Compound 432]		-	-	functionally similar to compound 1437	1 µg/mL (≈ 2.23 µM)	64 µg/mL (≈ 143 µM)	2 to 4 µg/mL (≈ 4.46 to 8.91 µM)	8 to 16 µg/mL (≈ 17.8 to 35.7 µM)	
C[C@H](CCC(=O)O)[C@H]1CC[C@H]2[C@@H]3[C@H](O)C[C@@H]4C[C@@H](NCCCNCCCCNCCCN)CC[C@]4(C)[C@H]3CC[C@]12C [Compound 413]	-	-	+	effects like those produced by compound 1436	8 µg/mL (≈ 13.9 µM)	64 µg/mL (≈ 111 µM)	32 µg/mL (≈ 55.5 µM)	256 µg/mL (≈ 444 µM)	minimal effective concentration [1]: > 10 µg/mL
COC(=O)CC[C@@H](C)[C@H]1CC[C@H]2[C@@H]3C[C@@H](O)[C@H]4C[C@H](NCCN)CC[C@]4(C)[C@H]3CC[C@]12C [Compound 431]				functionally similar to compound 1437	16 µg/mL (≈ 35.7 µM)	128 µg/mL (≈ 285 µM)	8 µg/mL (≈ 17.8 µM)	32 to 64 µg/mL (≈ 71.3 to 143 µM)	
COC(=O)CC[C@@H](C)[C@H]1CC[C@H]2[C@@H]3CC[C@@H]4C[C@H](NCCN)CC[C@]4(C)[C@H]3C[C@H](O)[C@]12C [Compound 416]				functionally similar to compound 1437	8 µg/mL (≈ 17.8 µM)	16 to 32 µg/mL (≈ 35.7 to 71.3 µM)	32 µg/mL (≈ 71.3 µM)	8 µg/mL (≈ 17.8 µM)	
NC[C@H](O)c1ccc(O)c(O)c1 [noradrenaline, reference compound]									blood pressure after noradrenaline [11]: An almost immediate increase in blood pressure
